One test has as its target Carbonic anhydrase 2 (Homo sapiens, UniProt P00918). The experiment in a line: Inhibition of human carbonic anhydrase 2 incubated for 15 mins prior to testing by stopped-flow CO2 hydration assay.
In the next test the target is Carbonic anhydrase 12 (Homo sapiens, UniProt O43570). The experiment in a line: Inhibition of human carbonic anhydrase 12 incubated for 15 mins prior to testing by stopped-flow CO2 hydration assay.
In a further test the target is Carbonic anhydrase 1 (Homo sapiens, UniProt P00915). Kind of test: Inhibition of human carbonic anhydrase 1 incubated for 15 mins prior to testing by stopped-flow CO2 hydration assay.
Sequence of Carbonic anhydrase 1 (P00915 whole entry): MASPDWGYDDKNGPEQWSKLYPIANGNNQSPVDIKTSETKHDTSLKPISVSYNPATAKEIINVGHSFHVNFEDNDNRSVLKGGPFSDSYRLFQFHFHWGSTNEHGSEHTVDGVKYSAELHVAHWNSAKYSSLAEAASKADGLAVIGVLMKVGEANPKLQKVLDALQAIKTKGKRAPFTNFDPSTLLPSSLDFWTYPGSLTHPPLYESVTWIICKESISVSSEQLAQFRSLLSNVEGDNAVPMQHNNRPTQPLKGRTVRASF
The next test has as its target Carbonic anhydrase 9 (Homo sapiens, UniProt Q16790). The experiment in a line: Inhibition of human carbonic anhydrase 9 incubated for 15 mins prior to testing by stopped-flow CO2 hydration assay.

Sequence of Carbonic anhydrase 12 (O43570 whole entry): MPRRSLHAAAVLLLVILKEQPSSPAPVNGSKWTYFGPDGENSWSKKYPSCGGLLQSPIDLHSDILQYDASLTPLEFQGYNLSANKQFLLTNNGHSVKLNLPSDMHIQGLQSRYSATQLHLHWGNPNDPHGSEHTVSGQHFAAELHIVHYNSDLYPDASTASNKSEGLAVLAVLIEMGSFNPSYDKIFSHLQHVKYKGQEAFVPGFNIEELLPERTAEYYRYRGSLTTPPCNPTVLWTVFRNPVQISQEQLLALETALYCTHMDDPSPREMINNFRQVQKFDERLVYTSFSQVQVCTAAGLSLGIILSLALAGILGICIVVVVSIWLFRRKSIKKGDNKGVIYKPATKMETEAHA

For orientation: Ki means a dissociation constant, usually derived from enzyme kinetics or from competition with a known ligand. Low readings indicate tighter binding, high ones weaker binding. As for `Cc1c(O)ccc2c(-c3ccccc3)cc(=O)oc12`, the Ki on Carbonic anhydrase 2 is above 10000 nM; on Carbonic anhydrase 12, 402 nM; on Carbonic anhydrase 1, above 10000 nM; at Carbonic anhydrase 9 it was 39.5 nM.

In the case of `O=c1cc(-c2ccc([N+](=O)[O-])cc2)c2ccc(O)cc2o1`, the Ki on Carbonic anhydrase 2 was above 10000 nM; at Carbonic anhydrase 12 it was 6.5 nM; on Carbonic anhydrase 1, above 10000 nM; at Carbonic anhydrase 9, 20.3 nM.

For the compound `O=C(Oc1ccc2ccc(=O)oc2c1)c1ccccc1`, the Ki at Carbonic anhydrase 2 is above 10000 nM; at Carbonic anhydrase 12, 814 nM; at Carbonic anhydrase 1, above 10000 nM; at Carbonic anhydrase 9, 51.4 nM.

For `O=c1cc(-c2ccccc2F)c2ccc(O)cc2o1`, the values for the Ki at Carbonic anhydrase 2, at Carbonic anhydrase 1 and at Carbonic anhydrase 9 were above 10000 nM, above 10000 nM and 31.8 nM, respectively.

Regarding `CC(=O)Oc1ccc2oc(=O)ccc2c1`, the Ki at Carbonic anhydrase 2 was above 10000 nM; at Carbonic anhydrase 1, above 10000 nM; on Carbonic anhydrase 9, 23.1 nM.

Consider `O=c1cc(-c2ccccc2)c2ccc(O)cc2o1`, for which the Ki on Carbonic anhydrase 2 was above 10000 nM; on Carbonic anhydrase 12, 90.8 nM; at Carbonic anhydrase 1, above 10000 nM; on Carbonic anhydrase 9, 47.2 nM.

Take `CC(=O)Oc1cc2ccc(=O)oc2cc1OC(C)=O`: the Ki at Carbonic anhydrase 2 was above 10000 nM; on Carbonic anhydrase 1, above 10000 nM; on Carbonic anhydrase 9, 116 nM.

Regarding `O=C(Oc1cc2ccc(=O)oc2cc1OC(=O)c1ccccc1)c1ccccc1`, the Ki was above 10000 nM on Carbonic anhydrase 2, above 10000 nM on Carbonic anhydrase 1 and 38.4 nM at Carbonic anhydrase 9.

Turning to `O=c1cc(-c2cccc(Cl)c2)c2ccc(O)cc2o1`, the Ki at Carbonic anhydrase 2 was above 10000 nM; at Carbonic anhydrase 1 it was above 10000 nM; at Carbonic anhydrase 9, 31 nM.

For the compound `Cc1cccc(-c2cc(=O)oc3cc(O)ccc23)c1`, the Ki was above 10000 nM at Carbonic anhydrase 2, above 10000 nM on Carbonic anhydrase 1 and 17 nM on Carbonic anhydrase 9.

`Cc1cccc(-c2cc(=O)oc3c(C)c(O)ccc23)c1`: the results for the Ki on Carbonic anhydrase 2, at Carbonic anhydrase 1 and at Carbonic anhydrase 9 were above 10000 nM, above 10000 nM and 37.4 nM, respectively.

Regarding `Nc1ccc(-c2cc(=O)oc3cc(O)ccc23)cc1`, the Ki was above 10000 nM on Carbonic anhydrase 2, above 10000 nM on Carbonic anhydrase 1 and 21.6 nM at Carbonic anhydrase 9.

`Cc1c(O)ccc2c(-c3cccc(Cl)c3)cc(=O)oc12`: the values for the Ki on Carbonic anhydrase 2, on Carbonic anhydrase 1 and at Carbonic anhydrase 9 were above 10000 nM, above 10000 nM and 36.6 nM, respectively.

With `Cc1c(O)ccc2c(-c3ccc([N+](=O)[O-])cc3)cc(=O)oc12`, the Ki was above 10000 nM at Carbonic anhydrase 2, above 10000 nM at Carbonic anhydrase 1 and 30.9 nM at Carbonic anhydrase 9.

Take `Cc1c(O)ccc2c(-c3ccccc3F)cc(=O)oc12`: the Ki is above 10000 nM at Carbonic anhydrase 2, above 10000 nM at Carbonic anhydrase 1 and 95.9 nM on Carbonic anhydrase 9.

With `Cc1ccc(-c2cc(=O)oc3c(C)c(O)ccc23)cc1`, the Ki at Carbonic anhydrase 2 is above 10000 nM; at Carbonic anhydrase 1 it was above 10000 nM; on Carbonic anhydrase 9, 38.2 nM.

On to `O=c1cc(-c2ccc(Cl)cc2)c2ccc(O)cc2o1`, for which the Ki was above 10000 nM at Carbonic anhydrase 2, above 10000 nM at Carbonic anhydrase 1 and 31.5 nM at Carbonic anhydrase 9.

Regarding `O=C(Oc1ccc2oc(=O)ccc2c1)c1ccccc1`, the figures for the Ki at Carbonic anhydrase 2, at Carbonic anhydrase 1 and at Carbonic anhydrase 9 were above 10000 nM, above 10000 nM and 29.9 nM, respectively.

Turning to `Cc1ccc(-c2cc(=O)oc3cc(O)ccc23)cc1`, the Ki on Carbonic anhydrase 2 was above 10000 nM; on Carbonic anhydrase 1, above 10000 nM; on Carbonic anhydrase 9, 35.8 nM.

Consider `Cc1c(O)ccc2c(-c3ccc(N)cc3)cc(=O)oc12`, for which the Ki on Carbonic anhydrase 2 and at Carbonic anhydrase 1 was above 10000 nM throughout.

For `Cc1c(O)ccc2c(-c3ccccc3Cl)cc(=O)oc12`, the Ki at Carbonic anhydrase 2 was above 10000 nM; at Carbonic anhydrase 1, above 10000 nM; on Carbonic anhydrase 9 it was 27.5 nM.

As for `O=c1cc(-c2ccccc2Cl)c2ccc(O)cc2o1`, the Ki on Carbonic anhydrase 2 was above 10000 nM; at Carbonic anhydrase 1 it was above 10000 nM; at Carbonic anhydrase 9, 30.8 nM.

As for `Cc1c(O)ccc2c(-c3ccc(Cl)cc3)cc(=O)oc12`, the Ki on Carbonic anhydrase 2 was above 10000 nM; at Carbonic anhydrase 1, above 10000 nM; at Carbonic anhydrase 9, 35.3 nM.

On to `O=c1ccc2cc(O)ccc2o1` [6-HYDROXYCOUMARIN], for which the Ki is above 10000 nM on Carbonic anhydrase 2, 33.9 nM at Carbonic anhydrase 12, above 10000 nM on Carbonic anhydrase 1 and 30.5 nM on Carbonic anhydrase 9.

Consider `CC(=O)Oc1ccc2ccc(=O)oc2c1` [7-ACETOXYCOUMARIN], for which the Ki on Carbonic anhydrase 2 is above 10000 nM; on Carbonic anhydrase 12 it was 573 nM; on Carbonic anhydrase 1, above 10000 nM; on Carbonic anhydrase 9, 40.2 nM.

For the compound `O=c1ccc2cc(O)c(O)cc2o1` [ESCULETIN], the Ki was above 10000 nM on Carbonic anhydrase 2, 9.3 nM at Carbonic anhydrase 12, above 10000 nM on Carbonic anhydrase 1 and 36.4 nM on Carbonic anhydrase 9.

(Values after ChEMBL document CHEMBL4138209, “Inhibitory effects and structural insights for a novel series of coumarin-based compounds that selectively target human CA IX and CA XII carbonic anhydrases” (Eur J Med Chem, 2018).)
